Laboratory results: the supplement of paper PMC9780213

Legend:
Details in all cases: treatment time: 24 h
[1] = test system: U2OS; assay: cell count relative to DMSO control (panel A, nuclei/RNA/PMG/mitochondria stain) (fraction of control); higher = more cells (less toxicity)
Experimental: (§1)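 U2OS-derived cells in 384-well plates were treated for 24 h with a 7-point 2-fold dilution series (top dose 20 µM for most compounds; final max DMSO 1%), then fixed, stained in four marker panels and imaged on a Cellomics ArrayScan. Cell count per treatment (three replicate plates merged) is given as a fraction of DMSO control. Panel A used parental U2OS, panel B U2OS-mOrange2-Peroxisome, panel C1 U2OS-LMNB1-TUBA1B-ACTB (DRAQ5 nuclei).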

[2] = test system: U2OS-LMNB1-TUBA1B-ACTB; assay: cell count relative to DMSO control (panel C1, DRAQ5/ER stain) (fraction of control); higher = more cells (less toxicity)
Experimental: as §1

[3] = test system: U2OS-mOrange2-Peroxisome; assay: cell count relative to DMSO control (panel B, lysosome/peroxisome/lipid stain) (fraction of control); higher = more cells (less toxicity)
Experimental: as §1

| Structure (SMILES) | cell count ([1]; 0.3125 µM) | cell count ([1]; 0.625 µM) | cell count ([1]; 1.25 µM) | cell count ([1]; 2.5 µM) | cell count ([1]; 5 µM) | cell count ([1]; 10 µM) | cell count ([1]; 20 µM) | cell count ([2]; 0.3125 µM) | cell count ([2]; 0.625 µM) | cell count ([2]; 1.25 µM) | cell count ([2]; 2.5 µM) | cell count ([2]; 5 µM) | cell count ([2]; 10 µM) | cell count ([2]; 20 µM) | cell count ([3]; 0.3125 µM) | cell count ([3]; 0.625 µM) | cell count ([3]; 1.25 µM) | cell count ([3]; 2.5 µM) | cell count ([3]; 5 µM) | cell count ([3]; 10 µM) | cell count ([3]; 20 µM) | cell count ([1]; 0.15625 µM) | cell count ([2]; 0.15625 µM) | cell count ([3]; 0.15625 µM) | cell count ([1]; 0.07812 µM) | cell count ([2]; 0.07812 µM) | cell count ([3]; 0.07812 µM) |
| --- | --- | --- | --- | --- | --- | --- | --- | --- | --- | --- | --- | --- | --- | --- | --- | --- | --- | --- | --- | --- | --- | --- | --- | --- | --- | --- | --- |
| Nc1ccn([C@@H]2O[C@H](CO)[C@@H](O)C2(F)F)c(=O)n1 [gemcitabine] | 1.03 | 0.658 | 0.435 | 0.374 | 0.396 | 0.379 | 0.412 | 1.03 | 0.582 | 0.411 | 0.391 | 0.383 | 0.396 | 0.388 | 0.811 | 0.529 | 0.498 | 0.576 | 0.543 | 0.595 | 0.496 | – | – | – | – | – | – |
| CN(C)[C@@H]1C(O)=C(C(N)=O)C(=O)[C@@]2(O)C(O)=C3C(=O)c4c(O)ccc(Cl)c4[C@@](C)(O)[C@H]3C[C@@H]12 [chlortetracycline] | 1.12 | 1.07 | 1.08 | 1.06 | 1.02 | 0.933 | 0.783 | 1.15 | 1.12 | 1.1 | 0.983 | 0.989 | 1.07 | 0.897 | 0.886 | 0.771 | 0.779 | 0.944 | 1.01 | 0.62 | 0.486 | – | – | – | – | – | – |
| COc1ccc(C[C@H]2NC[C@H](O)[C@H]2OC(C)=O)cc1 [anisomycin] | 0.794 | 0.502 | 0.186 | 0.0402 | 0.0213 | 0.0357 | 0.053 | 0.84 | 0.602 | 0.226 | 0.0722 | 0.0685 | 0.0611 | 0.166 | 0.678 | 0.277 | 0.0792 | 0.0323 | 0.133 | 0.195 | 0.1 | – | – | – | – | – | – |
| COC(=O)Nc1nc2ccc(C(=O)c3cccs3)cc2[nH]1 [nocodazole] | 1.06 | 0.962 | 1.03 | 0.792 | 0.692 | 0.317 | 0.196 | 1.12 | 0.993 | 1.01 | 0.999 | 0.737 | 0.414 | 0.369 | 0.837 | 0.656 | 0.775 | 0.628 | 0.411 | 0.425 | 0.381 | – | – | – | – | – | – |
| NS(=O)(=O)C#Cc1ccccc1 [pifithrin-mu] | 1.07 | 1.11 | 1.05 | 0.983 | 0.953 | 1.05 | – | 1.09 | 1.06 | 1.08 | 1.07 | 1.1 | 0.97 | – | 1.02 | 0.981 | 0.941 | 1.08 | 1.02 | 1.13 | – | 1.06 | 1.14 | 1.01 | – | – | – |
| CC(C)n1c(/C=C/C(O)CC(O)CC(=O)O)c(-c2ccc(F)cc2)c2ccccc21 (stereo not given) [fluvastatin] | 0.901 | 0.848 | 0.867 | 0.777 | 0.826 | 0.702 | 0.441 | 1.01 | 0.939 | 0.943 | 0.931 | 0.899 | 0.892 | 0.849 | 0.991 | 0.839 | 0.835 | 0.93 | 0.815 | 0.872 | 0.22 | – | – | – | – | – | – |
| COc1cccc2c1C(=O)c1c(O)c3c(c(O)c1C2=O)C[C@@](O)(C(=O)CO)C[C@@H]3O[C@H]1C[C@H](N)[C@H](O)[C@H](C)O1 [doxorubicin] | 0.932 | 0.836 | 0.84 | 0.754 | 0.34 | – | – | 1.12 | 1.23 | 0.925 | 0.807 | 0.624 | – | – | 0.747 | 0.899 | 0.86 | 1.1 | 0.37 | – | – | 1.03 | 1.17 | 0.735 | 0.933 | 1.08 | 0.712 |
| CCCCCCCC(=O)N[C@H](CN1CCCC1)[C@H](O)c1ccc2c(c1)OCCO2 [eliglustat] | 0.927 | 0.977 | 0.988 | 1.01 | 1.1 | 1.01 | 0.973 | 1.08 | 1.13 | 1.13 | 1.08 | 1.09 | 1.07 | 1.02 | 1.25 | 0.795 | 0.804 | 0.767 | 0.889 | 0.945 | 1.12 | – | – | – | – | – | – |
| CN(Cc1cnc2nc(N)nc(N)c2n1)c1ccc(C(=O)N[C@@H](CCC(=O)O)C(=O)O)cc1 [methotrexate] | 0.705 | 0.696 | 0.691 | 0.689 | 0.561 | – | – | 0.838 | 0.851 | 0.728 | 0.663 | 0.497 | – | – | 0.663 | 0.807 | 0.808 | 0.78 | 0.748 | – | – | 0.699 | 0.8 | 0.757 | 0.782 | 0.922 | 0.761 |
| CC(=O)O[C@H]1C(=O)[C@@]2(C)[C@H]([C@H](OC(=O)c3ccccc3)[C@]3(O)C[C@H](OC(=O)[C@H](O)[C@@H](NC(=O)c4ccccc4)c4ccccc4)C(C)=C1C3(C)C)[C@]1(OC(C)=O)CO[C@@H]1C[C@@H]2O [paclitaxel] | 0.956 | 1.05 | 0.97 | 0.928 | 1.04 | 1 | 1 | 1.04 | 1.09 | 1.08 | 1.05 | 0.93 | 1.14 | 0.992 | 0.878 | 0.695 | 0.709 | 0.787 | 0.849 | 0.843 | 1.14 | – | – | – | – | – | – |
| CC(C)n1nc(-c2ccc3oc(N)nc3c2)c2c(N)ncnc21 [MLN0128] | 0.521 | 0.481 | 0.454 | 0.408 | 0.204 | – | – | 0.7 | 0.698 | 0.614 | 0.557 | 0.271 | – | – | 0.42 | 0.439 | 0.393 | 0.301 | 0.0428 | – | – | 0.584 | 0.748 | 0.426 | 0.646 | 0.774 | 0.578 |
| CCCC[C@H]1C(=O)O[C@H](C)[C@H](NC(=O)c2cccc(NC=O)c2O)C(=O)O[C@@H](C)[C@@H]1OC(=O)CC(C)C [antimycin-a] | 1.02 | 0.799 | 0.644 | 0.587 | 0.497 | 0.507 | – | 1.05 | 0.943 | 0.716 | 0.66 | 0.626 | 0.54 | – | 0.945 | 0.858 | 0.811 | 0.724 | 0.66 | 0.739 | – | 1.04 | 1.01 | 1.04 | – | – | – |
| O=C1c2c(O)ccc(O)c2C(=O)c2c(NCCNCCO)ccc(NCCNCCO)c21 [mitoxantrone] | 0.662 | 0.503 | 0.411 | 0.455 | 0.447 | – | – | 0.532 | 0.465 | 0.434 | 0.403 | 0.371 | – | – | 0.648 | 0.642 | 0.605 | 0.544 | 0.548 | – | – | 0.887 | 0.693 | 0.953 | 0.956 | 1.05 | 1.16 |
| CC[C@H]1/C=C/C=C/C[C@@H](C)[C@H](O)[C@@](C)(O)C(=O)[C@@H](C)[C@H](O)[C@@H](C)C(=O)[C@@H](C)[C@H](O)[C@@H](C)/C=C/C(=O)O[C@@H]2[C@H](C)[C@H](CC1)O[C@]1(CC[C@H](C)[C@H](C[C@@H](C)O)O1)[C@H]2C [oligomycin-a] | 0.986 | 0.995 | 1.04 | 0.938 | 0.99 | 0.925 | – | 1.03 | 1.07 | 1 | 1.03 | 1.09 | 1.05 | – | 0.906 | 0.944 | 0.895 | 0.858 | 1.21 | 1.09 | – | 0.555 | 0.621 | 0.52 | – | – | – |
| CO[C@@]12[C@H](COC(N)=O)C3=C(C(=O)C(C)=C(N)C3=O)N1C[C@@H]1N[C@@H]12 [mitomycin-c] | 0.677 | 0.708 | 0.683 | 0.639 | 0.59 | 0.531 | 0.278 | 0.882 | 0.789 | 0.864 | 0.812 | 0.746 | 0.672 | 0.38 | 0.696 | 0.65 | 0.706 | 0.72 | 0.6 | 0.363 | 0.279 | – | – | – | – | – | – |
